# Experiments:
# [1] = target: PDE I; assay: Phosphodiesterase inhibition in vitro, PDE I (Ca-calmodulin-stimulatable); type: biochemical, porcine aorta, porcine brain or, preferably, bovine aorta; settings: Ca/calmodulin added, substrate 10^-6 mol/l
# From the text: (§1) The c-GMP-stimulatable PDE II, the c-GMP-inhibitable PDE III and the cAMP-specific PDE IV were isolated either from porcine or bovine heart myocard. The Ca^2+ -calmodulin-stimulatable PDE I was isolated from porcine aorta, porcine brain or, preferably, bovine aorta. The c-GMP-specific PDE V was obtained from porcine small intestine, porcine aorta, human platelets and, preferably, bovine aorta. They were purified by anion exchange chromatography on MonoQ® Pharmacia following essentially the method of M. Hoey and Miles D. Houslay, Biochemical Pharmacology, Vol. 40, 193-202 (1990) and C. Lugman et al. Biochemical Pharmacology Vol. 35 1743-1751 (1986).
# (§2) The enzyme activity is determined in a test batch of 100 μl in 20 mM Tris/HCl buffer pH 7.5 which comprises 5 mM MgCl2, 0.1 mg/ml bovine serum albumin and either 800 Bq ^3 HcAMP or ^3 HcGMP. The end concentration of the corresponding nucleotide is 10^-6 mol/l. The reaction is started by adding the enzyme, and the quantity of enzyme is such that approx. 50% of the substrate are converted during the incubation time of 30 minutes. To test the cGMP-stimulatable PDE II, ^3 HcAMP is used as substrate, 10^-6 mol/l unlabelled cGMP are added to the batch. To test the Ca-calmodulin-dependent PDE I, 1 μM CaCl2 and 0.1 μM calmodulin are also added to the reaction batch. The reaction is stopped by adding 100 μl of acetonitrile which contains 1 mM cAMP and 1 mM AMP. 100 μl of the reaction batch are separated by HPLC and the cleavage products are quantified on-line using a flow scintillation counter. The substance concentration at which the reaction rate is reduced by 50% is measured. Also used for testing were the "Phosphodiesterase [^3 H] cAMP-SPA enzyme assay" and the "Phosphodiesterase [^3 H]cGMP-SPA enzyme assay" by Amersham Life Science. The test was performed following the manufacturer's protocol. To determine the PDE2 activity, the [^3 H] cAMP SPA assay was used, 10^-6 M cGMP being added to the reaction batch for activating the enzyme. To measure PDE1, 10^-7 M calmodulin and 1 μM CaCl2 were added to the reaction batch. PDE5 was measured using the [^3 H] cGMP SPA assay.
# [2] = target: PDE V; assay: Phosphodiesterase inhibition in vitro, PDE V (cGMP-specific); type: biochemical; settings: 3H-cGMP substrate
# From the text: as §1, §2
# [3] = target: PDE II; assay: Phosphodiesterase inhibition in vitro, PDE II (cGMP-stimulatable); type: biochemical, porcine or bovine; settings: 3H-cAMP substrate, 10^-6 mol/l cGMP added
# From the text: as §1, §2
SMILES,IC50 [1] [nM],IC50 [2] [nM],IC50 [3] [nM]
"CCc1nn(C(C)CCCc2ccccc2)c2nc(Cc3ccc(Br)cc3)[nH]c(=O)c12 (stereo not drawn) [Example 11, 6-(4-Bromo-benzyl)-1-(1-methyl-4-phenyl-butyl)-3-ethyl-1,5-dihydro-pyrazole[3,4-d]pyrimidin-4-one]",> 10000,50,100
COc1ccc(Cc2nc3c(cnn3C(C)CCCc3ccccc3)c(=O)[nH]2)cc1OC (stereo not drawn) [Example 9],300,300,300
CC(CCCc1ccccc1)n1ncc2c(=O)[nH]c(Cc3ccc(Cl)c(Cl)c3)nc21 (stereo not drawn) [Example 10],300,50,500
"Cc1nn(C(CCCc2ccccc2)C(C)O)c2nc(Cc3ccccc3)[nH]c(=O)c12 (single isomer, unassigned) [Example 33, 6-Benzyl-1-[1-(1-hydroxy-ethyl)-4-phenyl-butyl]-3-methyl-1,5-dihydro-pyrazolo[3,4-d]pyrimidin-4-one]",500,800,500
"Cc1nn(C(CCCc2ccccc2)C(C)O)c2nc(Cc3ccccc3)[nH]c(=O)c12 (single isomer, unassigned) [Example 32, 6-Benzyl-1-[1-(1-hydroxy-ethyl)-4-phenyl-butyl]-3-methyl-1,5-dihydro-pyrazolo[3,4-d]pyrimidin-4-one]",500,300,300
